Measured values taken from patent US20230372296A1, “COMPOSITIONS AND METHODS FOR ANXIETY DISORDER TREATMENT” (PSILOBRAIN THERAPEUTICS INC., priority 2020, published 2023).

Tested on: C57BL/6 mice
Test: elevated plus maze model of anxiety disorder
Assay type: in vivo
Description: The dosage ranges are based upon our preclinical rodent studies testing the anti-anxiety effects of formula (I) and crocin (across varying doses and combinations) on mouse behavior in the elevated plus maze task (see FIG. 1). The elevated plus maze is one of the most widely used tests for measuring anxiety-like behavior and the anti-anxiety effects of pharmacological agents and is based on the natural aversion of mice for open and elevated areas, as well as their natural spontaneous exploratory activity in novel environments. […] Finally, these dosage ranges, as identified from our preclinical studies are commensurate with clinical dosages safely prescribed in humans.
The elevated plus maze model is a behavioral assay for rodents which has been used to assess the […] effect of pharmacological agents. In the model, anxiety behavior of rodents is assessed by determining the ratio of time spent on the arms relative to the time spent in the closed arms of the elevated plus maze structure. The model relies on rodents' affinity to dark, enclosed spaces.
In the elevated plus model, C57BL/6 mice, aged between 6 and 7 weeks were acclimated for at least five days and assigned randomly to treatment groups. Mice were housed on a 12 hour light/dark cycle. No more than 4 mice were kept in each ventilated cage. Mice were provided with standard rodent chow and water ad libitum. Test compounds were administered through the oral route in a volume of 10 milliliters per kilogram (ml/kg) and were formulated in 0.9% saline. 12 groups of mice were tested in the model, each group consisting of 10 mice. After acclimation, test compositions were administered to the animals in the amounts, in milligram per kilogram of mouse weight (mg/kg) according to table 1.
As shown in the table, Group 1 was administered vehicle only. Groups 2 through 7 were administered various combinations of psilocybin and crocin. Groups 8-12 were administered either psilocybin alone or crocin alone. Behavioral testing was performed between 7-9 days after administration of the compounds.
Testing was performed in dim light of 40 lux. The elevated plus maze consists of two open and two closed arms (arm length: 30 cm; width: 5 cm). Open arms have a small 1 cm edge and the closed arms are bordered by a 15 cm wall. At the beginning of the task, mice were placed in the center of the elevated plus maze facing an open arm. Mice were video tracked while exploring the maze for 5 min. The time spent in the open and closed arms was measured and analyzed.
Comparisons were performed using 1 w-ANOVA, Fisher's LSD test. Significance is shown with a single asterisk if P<0.05, with a double asterisk if P<0.01, and with a triple asterisk if P<0.001.

**Q.** With CC(/C=C/C=C(\C)C(=O)O[C@@H]1O[C@H](CO[C@@H]2O[C@H](CO)[C@@H](O)[C@H](O)[C@H]2O)[C@@H](O)[C@H](O)[C@H]1O)=C\C=C\C=C(C)\C=C\C=C(/C)C(=O)O[C@@H]1O[C@H](CO[C@@H]2O[C@H](CO)[C@@H](O)[C@H](O)[C@H]2O)[C@@H](O)[C@H](O)[C@H]1O [crocin, Crocin] as the compound, how does the “time in open arms of elevated plus maze vs vehicle” value (shortened to “time in open arms … vs vehicle”) (crocin alone 30 mg/kg oral, tested 7-9 days after administration, 5 min) read?
**A.** The value was “did not show a significant beneficial effect on anxiety”.

**Q.** And the “time in open arms … vs vehicle” value (crocin alone 50 mg/kg oral, tested 7-9 days after administration, 5 min)?
**A.** The value was “did not show a significant beneficial effect on anxiety”.

**Q.** CN(C)CCc1c[nH]c2cccc(OP(=O)(O)O)c12 [psilocybin, Psilocybin] was tested. Which “time in open arms … vs vehicle” value (psilocybin 0.5 mg/kg and higher, administered on its own) did it give?
**A.** Its value is “either no changes in mouse behavior were observed, or increased anxiety-like behavior”.

**Q.** What about the “time in open arms … vs vehicle” value (psilocybin alone 0.1 mg/kg oral, tested 7-9 days after administration, 5 min) of the same compound?
**A.** The value was “no significant difference”.

**Q.** What about the “time in open arms … vs vehicle” value (psilocybin alone 0.5 mg/kg oral, tested 7-9 days after administration, 5 min) of the same compound?
**A.** Its value is “significant reduction in open arm time”.

**Q.** What about the “time in open arms … vs vehicle” value (psilocybin alone 1 mg/kg oral, tested 7-9 days after administration, 5 min) of the same compound?
**A.** The value was “significant reduction in open arm time”.
